{
  "source": "ChEMBL document CHEMBL5537181",
  "about": "(J Med Chem, 2024)",
  "key": {"[1]": {"biological_target": "T1, Voltage-dependent N-type calcium channel subunit alpha-1B (Homo sapiens, UniProt Q00975)", "test": "Inhibition of human Cav2.2 channel transfected in HEK293T cells assessed as inhibition of Cav2.2-mediated Ba2+ current at 1 uM measured for 3 to 5 days by whole-cell patch clamp assay", "type": "cell-based", "settings": "time 3-5 day"}, "[2]": {"biological_target": "Neuronal acetylcholine receptor; alpha3/beta4 (Rattus norvegicus) (UniProt P04757+P12392)", "test": "Antagonist activity at rat alpha3beta4 nAChR expressed in acetylcholine-induced Xenopus laevis oocytes assessed as inhibition of acetylcholine-induced current at 100 nM by two electrode voltage-clamp assay relative to control", "type": "cell-based", "settings": "Oocyte"}, "[3]": {"biological_target": "Neuronal acetylcholine receptor subunit alpha-7 (Homo sapiens, UniProt P36544)", "sequence (P36544 whole entry)": "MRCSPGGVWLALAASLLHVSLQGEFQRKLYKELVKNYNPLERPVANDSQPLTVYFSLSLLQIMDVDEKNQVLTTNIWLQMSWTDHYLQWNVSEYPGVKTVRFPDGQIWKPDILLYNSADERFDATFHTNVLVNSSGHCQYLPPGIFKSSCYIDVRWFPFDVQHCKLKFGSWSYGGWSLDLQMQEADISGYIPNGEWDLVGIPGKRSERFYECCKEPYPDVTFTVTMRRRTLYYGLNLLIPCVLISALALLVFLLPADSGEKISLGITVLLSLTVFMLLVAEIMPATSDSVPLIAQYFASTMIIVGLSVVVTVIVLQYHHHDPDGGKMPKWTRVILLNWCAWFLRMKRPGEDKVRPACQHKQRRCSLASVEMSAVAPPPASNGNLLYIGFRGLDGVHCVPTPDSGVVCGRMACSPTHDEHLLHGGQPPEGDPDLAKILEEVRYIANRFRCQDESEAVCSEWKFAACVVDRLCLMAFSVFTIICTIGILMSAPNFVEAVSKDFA", "test": "Antagonist activity at human alpha7 nAChR expressed in acetylcholine-induced Xenopus laevis oocytes assessed as inhibition of acetylcholine-induced current at 30 nM by two electrode voltage-clamp assay", "type": "cell-based", "settings": "Oocyte, filed as antagonist"}, "[4]": {"test": "Toxicity in rat assessed as change in behavior at 250 microg/kg,IM administrated for 14 consecutive days by conditioned place preference assay", "settings": "in vivo, 0.25 mg/kg, dose 250 µg/kg"}, "[5]": {"biological_target": "T2, Neuronal acetylcholine receptor; alpha9/alpha10 (Homo sapiens, UniProt Q9GZZ6+Q9UGM1)", "T2 sequence (Q9UGM1 whole entry)": "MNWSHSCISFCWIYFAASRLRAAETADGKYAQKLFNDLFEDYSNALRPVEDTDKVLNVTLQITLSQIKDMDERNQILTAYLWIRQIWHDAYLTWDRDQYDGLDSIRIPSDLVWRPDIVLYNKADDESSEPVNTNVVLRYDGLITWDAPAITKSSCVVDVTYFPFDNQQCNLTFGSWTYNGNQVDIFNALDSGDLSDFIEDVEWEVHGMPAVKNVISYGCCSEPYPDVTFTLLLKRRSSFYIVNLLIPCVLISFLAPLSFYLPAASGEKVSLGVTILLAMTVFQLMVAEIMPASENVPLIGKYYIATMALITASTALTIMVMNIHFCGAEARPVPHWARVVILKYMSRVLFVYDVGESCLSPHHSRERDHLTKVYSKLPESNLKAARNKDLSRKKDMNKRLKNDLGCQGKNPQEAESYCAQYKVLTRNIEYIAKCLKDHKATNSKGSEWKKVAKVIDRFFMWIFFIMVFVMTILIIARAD", "T2 sequence (Q9GZZ6 whole entry)": "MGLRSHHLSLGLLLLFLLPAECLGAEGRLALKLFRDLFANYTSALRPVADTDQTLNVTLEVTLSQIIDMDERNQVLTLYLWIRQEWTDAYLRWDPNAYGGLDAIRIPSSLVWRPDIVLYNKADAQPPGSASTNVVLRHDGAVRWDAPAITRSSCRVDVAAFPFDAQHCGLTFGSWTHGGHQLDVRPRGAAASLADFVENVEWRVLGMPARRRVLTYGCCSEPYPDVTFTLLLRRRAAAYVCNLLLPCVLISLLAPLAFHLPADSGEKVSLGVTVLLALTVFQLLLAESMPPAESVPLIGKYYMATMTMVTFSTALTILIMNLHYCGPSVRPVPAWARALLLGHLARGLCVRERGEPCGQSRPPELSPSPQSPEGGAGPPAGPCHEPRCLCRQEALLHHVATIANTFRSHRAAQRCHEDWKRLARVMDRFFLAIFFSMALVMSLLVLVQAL", "test": "Antagonist activity at human wild type alpha9alpha10 nAChR expressed in acetylcholine-induced Xenopus laevis oocytes assessed as inhibition of acetylcholine-induced current at 1:3 ratio of protein by two electrode voltage-clamp assay", "type": "cell-based, Oocyte"}, "[6]": {"biological_target": "T1, Voltage-dependent N-type calcium channel subunit alpha-1B", "test": "Inhibition of human Cav2.2 channel transfected in HEK293T cells co-expressed with human GABAB receptor assessed as inhibition of Cav2.2-mediated Ba2+ current at 100 nM in presence of CGP 55845 measured for 3 to 5 days by whole-cell patch clamp assay", "type": "cell-based", "settings": "time 3-5 day"}, "[7]": {"biological_target": "Neuronal acetylcholine receptor subunit alpha-7 (Rattus norvegicus) (UniProt Q05941)", "sequence (Q05941 whole entry)": "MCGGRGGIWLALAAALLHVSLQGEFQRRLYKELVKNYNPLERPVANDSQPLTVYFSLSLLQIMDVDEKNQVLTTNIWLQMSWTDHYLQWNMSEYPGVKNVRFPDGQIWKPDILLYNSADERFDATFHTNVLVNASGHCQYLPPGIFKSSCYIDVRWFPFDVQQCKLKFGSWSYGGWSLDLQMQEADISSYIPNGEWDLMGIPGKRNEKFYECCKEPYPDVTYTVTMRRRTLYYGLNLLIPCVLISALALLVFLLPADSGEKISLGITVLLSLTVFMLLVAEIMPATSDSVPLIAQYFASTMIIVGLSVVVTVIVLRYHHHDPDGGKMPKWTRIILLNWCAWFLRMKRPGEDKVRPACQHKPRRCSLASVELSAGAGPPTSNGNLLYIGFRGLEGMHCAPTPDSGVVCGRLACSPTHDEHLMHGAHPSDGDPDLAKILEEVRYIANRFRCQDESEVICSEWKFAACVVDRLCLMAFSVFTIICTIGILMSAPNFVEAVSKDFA", "test": "Antagonist activity at rat alpha7 nAChR expressed in acetylcholine-induced Xenopus laevis oocytes assessed as inhibition of acetylcholine-induced current at 30 nM by two electrode voltage-clamp assay relative to control", "type": "cell-based", "settings": "Oocyte"}, "[8]": {"biological_target": "T3, Neuronal acetylcholine receptor; alpha9/alpha10 (Homo sapiens) (UniProt Q9UGM1+Q9GZZ6)", "test": "Antagonist activity at human alpha9alpha10 nAChR expressed in acetylcholine-induced Xenopus laevis oocytes assessed as inhibition of acetylcholine-induced current at 30 nM at -80 mV holding potential by two electrode voltage-clamp assay", "type": "cell-based", "settings": "Oocyte, filed as antagonist"}, "Rattus norvegicus [9]": {"tested_on": "Rattus norvegicus", "test": "Analgesic activity in Chronic constriction injury rat model assessed as increase in paw withdrawal latency at 250 microg/kg,IM administration and measured for 0.5 to 48 hrs", "type": "functional, organism-based", "settings": "dose 250.0 µg/kg, time 0.5-48 hrs"}, "[10]": {"biological_target": "T3, Neuronal acetylcholine receptor; alpha9/alpha10 (Homo sapiens)", "test": "Antagonist activity at human wild type alpha9alpha10 nAChR expressed in acetylcholine-induced Xenopus laevis oocytes assessed as inhibition of acetylcholine-induced current at 30 nM by two electrode voltage-clamp assay relative to control", "type": "cell-based", "settings": "Oocyte, filed as antagonist"}, "Rattus norvegicus [11]": {"tested_on": "Rattus norvegicus", "test": "Analgesic activity in Chronic constriction injury rat model assessed as decrease in hyperalgesia at 250 microg/kg,IM administrated every 2 hrs for 7 days", "type": "functional, organism-based", "settings": "dose 250.0 µg/kg, time 7.0 day"}, "[12]": {"biological_target": "Sodium channel protein type 9 subunit alpha (Homo sapiens) (UniProt Q15858)", "sequence (Q15858 whole entry, looked up)": "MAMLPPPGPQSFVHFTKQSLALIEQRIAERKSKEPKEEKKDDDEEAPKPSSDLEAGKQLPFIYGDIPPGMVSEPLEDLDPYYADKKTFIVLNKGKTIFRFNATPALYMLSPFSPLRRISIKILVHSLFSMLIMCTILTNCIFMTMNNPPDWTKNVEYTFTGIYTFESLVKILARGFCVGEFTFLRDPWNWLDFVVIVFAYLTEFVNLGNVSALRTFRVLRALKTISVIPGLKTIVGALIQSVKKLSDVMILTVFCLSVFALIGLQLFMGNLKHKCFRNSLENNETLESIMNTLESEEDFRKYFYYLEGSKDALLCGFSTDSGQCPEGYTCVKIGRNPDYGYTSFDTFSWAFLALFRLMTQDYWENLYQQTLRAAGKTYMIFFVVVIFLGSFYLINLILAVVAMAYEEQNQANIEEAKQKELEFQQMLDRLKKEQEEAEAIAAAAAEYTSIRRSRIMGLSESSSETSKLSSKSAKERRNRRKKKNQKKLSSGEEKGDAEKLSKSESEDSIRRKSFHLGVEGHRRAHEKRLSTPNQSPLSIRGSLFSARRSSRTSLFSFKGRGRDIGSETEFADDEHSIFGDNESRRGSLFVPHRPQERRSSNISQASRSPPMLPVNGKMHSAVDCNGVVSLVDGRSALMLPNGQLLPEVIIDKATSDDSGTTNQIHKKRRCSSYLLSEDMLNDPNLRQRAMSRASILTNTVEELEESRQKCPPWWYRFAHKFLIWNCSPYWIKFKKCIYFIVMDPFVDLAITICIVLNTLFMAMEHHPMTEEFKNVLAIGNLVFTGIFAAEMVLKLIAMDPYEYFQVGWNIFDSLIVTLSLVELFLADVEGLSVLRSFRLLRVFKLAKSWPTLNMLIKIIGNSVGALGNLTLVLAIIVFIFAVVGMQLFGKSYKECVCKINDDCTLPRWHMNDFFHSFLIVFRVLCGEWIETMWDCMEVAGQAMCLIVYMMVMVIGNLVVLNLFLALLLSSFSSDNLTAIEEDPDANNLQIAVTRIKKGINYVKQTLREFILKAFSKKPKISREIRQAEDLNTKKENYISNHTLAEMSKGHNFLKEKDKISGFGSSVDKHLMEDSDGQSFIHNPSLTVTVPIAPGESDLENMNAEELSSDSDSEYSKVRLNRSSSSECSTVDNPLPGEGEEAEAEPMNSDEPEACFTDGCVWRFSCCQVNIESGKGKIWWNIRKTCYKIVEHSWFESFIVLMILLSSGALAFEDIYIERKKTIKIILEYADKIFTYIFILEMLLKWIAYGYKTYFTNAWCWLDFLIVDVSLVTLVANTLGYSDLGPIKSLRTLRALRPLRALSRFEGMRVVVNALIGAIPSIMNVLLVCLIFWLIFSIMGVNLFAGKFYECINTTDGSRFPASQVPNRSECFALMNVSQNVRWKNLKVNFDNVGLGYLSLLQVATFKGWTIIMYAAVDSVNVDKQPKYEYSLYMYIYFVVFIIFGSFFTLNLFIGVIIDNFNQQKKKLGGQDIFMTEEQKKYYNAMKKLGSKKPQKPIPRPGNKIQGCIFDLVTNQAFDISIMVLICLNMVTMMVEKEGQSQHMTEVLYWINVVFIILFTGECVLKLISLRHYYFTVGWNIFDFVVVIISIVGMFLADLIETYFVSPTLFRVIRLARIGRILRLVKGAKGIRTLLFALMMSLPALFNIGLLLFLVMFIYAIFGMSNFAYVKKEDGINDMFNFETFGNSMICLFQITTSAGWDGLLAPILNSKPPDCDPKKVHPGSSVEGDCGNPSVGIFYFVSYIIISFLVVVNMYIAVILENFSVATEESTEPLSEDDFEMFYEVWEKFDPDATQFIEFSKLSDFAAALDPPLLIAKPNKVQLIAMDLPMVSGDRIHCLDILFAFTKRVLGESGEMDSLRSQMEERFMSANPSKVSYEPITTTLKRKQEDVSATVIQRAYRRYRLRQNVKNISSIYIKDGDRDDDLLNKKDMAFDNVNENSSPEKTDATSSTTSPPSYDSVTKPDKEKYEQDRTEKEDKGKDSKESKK", "test": "Inhibition of Nav1.7 (unknown origin) at 1 uM"}, "[13]": {"biological_target": "T1, Voltage-dependent N-type calcium channel subunit alpha-1B", "test": "Inhibition of human Cav2.2 channel transfected in HEK293T cells assessed as inhibition of Cav2.2-mediated Ba2+ current measured for 3 to 5 days by whole-cell patch clamp assay", "type": "cell-based"}, "[14]": {"biological_target": "T1, Voltage-dependent N-type calcium channel subunit alpha-1B", "test": "Inhibition of human Cav2.2 channel transfected in HEK293T cells assessed as inhibition of Cav2.2-mediated Ba2+ current at 1 uM measured for 3 to 5 days by whole-cell patch clamp assay relative to control", "type": "cell-based", "settings": "time 3-5 day"}, "[15]": {"biological_target": "T2, Neuronal acetylcholine receptor; alpha9/alpha10", "test": "Antagonist activity at human wild type alpha9alpha10 nAChR expressed in acetylcholine-induced Xenopus laevis oocytes assessed as inhibition of acetylcholine-induced current at 1:1 ratio of protein by two electrode voltage-clamp assay", "type": "cell-based, Oocyte"}, "[16]": {"biological_target": "Neuronal acetylcholine receptor subunit alpha-7 (Rattus norvegicus) (UniProt Q05941)", "test": "Antagonist activity at rat alpha7 nAChR expressed in acetylcholine-induced Xenopus laevis oocytes assessed as inhibition of acetylcholine-induced current at 100 nM by two electrode voltage-clamp assay relative to control", "type": "cell-based", "settings": "Oocyte"}, "[17]": {"biological_target": "Neuronal acetylcholine receptor; alpha3/beta2 (Homo sapiens) (UniProt P17787+P32297)", "test": "Antagonist activity at human alpha3beta2 nAChR expressed in acetylcholine-induced Xenopus laevis oocytes assessed as inhibition of acetylcholine-induced current at 100 nM by two electrode voltage-clamp assay relative to control", "type": "cell-based", "settings": "Oocyte"}, "[18]": {"biological_target": "Nicotinic acetylcholine receptor alpha9/alpha10 (Rattus norvegicus, UniProt P43144+Q9JLB5)", "sequence (P43144 whole entry)": "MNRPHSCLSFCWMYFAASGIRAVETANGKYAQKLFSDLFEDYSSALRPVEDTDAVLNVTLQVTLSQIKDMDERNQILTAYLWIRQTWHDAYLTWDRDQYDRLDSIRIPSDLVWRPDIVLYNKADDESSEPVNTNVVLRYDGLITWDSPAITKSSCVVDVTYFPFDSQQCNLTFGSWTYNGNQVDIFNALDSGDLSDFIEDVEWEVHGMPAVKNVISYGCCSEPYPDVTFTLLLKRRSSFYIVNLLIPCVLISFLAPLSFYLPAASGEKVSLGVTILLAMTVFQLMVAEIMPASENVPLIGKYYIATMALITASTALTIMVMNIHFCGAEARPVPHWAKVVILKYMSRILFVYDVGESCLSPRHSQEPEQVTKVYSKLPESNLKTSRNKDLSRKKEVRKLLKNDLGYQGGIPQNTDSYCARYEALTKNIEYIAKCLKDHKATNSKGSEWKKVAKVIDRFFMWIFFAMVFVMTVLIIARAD", "sequence (Q9JLB5 whole entry)": "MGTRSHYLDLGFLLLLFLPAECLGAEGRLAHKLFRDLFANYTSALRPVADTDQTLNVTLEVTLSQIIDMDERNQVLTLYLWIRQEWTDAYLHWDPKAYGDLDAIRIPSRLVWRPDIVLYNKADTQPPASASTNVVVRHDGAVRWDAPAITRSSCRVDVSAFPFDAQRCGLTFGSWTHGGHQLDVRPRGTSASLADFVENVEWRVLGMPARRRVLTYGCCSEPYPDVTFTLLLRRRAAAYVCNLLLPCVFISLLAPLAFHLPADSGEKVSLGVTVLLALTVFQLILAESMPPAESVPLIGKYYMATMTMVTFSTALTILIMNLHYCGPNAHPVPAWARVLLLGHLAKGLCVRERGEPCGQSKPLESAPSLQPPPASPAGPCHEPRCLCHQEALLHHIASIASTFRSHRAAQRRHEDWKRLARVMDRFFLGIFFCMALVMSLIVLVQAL", "test": "Antagonist activity at rat wild type alpha9alpha10 nAChR expressed in acetylcholine-induced Xenopus laevis oocytes assessed as inhibition of acetylcholine-induced current at 1:1 ratio of protein by two electrode voltage-clamp assay", "type": "cell-based, Oocyte"}, "[19]": {"biological_target": "T4, Potassium/sodium hyperpolarization-activated cyclic nucleotide-gated channel 2 (Homo sapiens) (UniProt Q9UL51)", "T4 sequence (whole entry)": "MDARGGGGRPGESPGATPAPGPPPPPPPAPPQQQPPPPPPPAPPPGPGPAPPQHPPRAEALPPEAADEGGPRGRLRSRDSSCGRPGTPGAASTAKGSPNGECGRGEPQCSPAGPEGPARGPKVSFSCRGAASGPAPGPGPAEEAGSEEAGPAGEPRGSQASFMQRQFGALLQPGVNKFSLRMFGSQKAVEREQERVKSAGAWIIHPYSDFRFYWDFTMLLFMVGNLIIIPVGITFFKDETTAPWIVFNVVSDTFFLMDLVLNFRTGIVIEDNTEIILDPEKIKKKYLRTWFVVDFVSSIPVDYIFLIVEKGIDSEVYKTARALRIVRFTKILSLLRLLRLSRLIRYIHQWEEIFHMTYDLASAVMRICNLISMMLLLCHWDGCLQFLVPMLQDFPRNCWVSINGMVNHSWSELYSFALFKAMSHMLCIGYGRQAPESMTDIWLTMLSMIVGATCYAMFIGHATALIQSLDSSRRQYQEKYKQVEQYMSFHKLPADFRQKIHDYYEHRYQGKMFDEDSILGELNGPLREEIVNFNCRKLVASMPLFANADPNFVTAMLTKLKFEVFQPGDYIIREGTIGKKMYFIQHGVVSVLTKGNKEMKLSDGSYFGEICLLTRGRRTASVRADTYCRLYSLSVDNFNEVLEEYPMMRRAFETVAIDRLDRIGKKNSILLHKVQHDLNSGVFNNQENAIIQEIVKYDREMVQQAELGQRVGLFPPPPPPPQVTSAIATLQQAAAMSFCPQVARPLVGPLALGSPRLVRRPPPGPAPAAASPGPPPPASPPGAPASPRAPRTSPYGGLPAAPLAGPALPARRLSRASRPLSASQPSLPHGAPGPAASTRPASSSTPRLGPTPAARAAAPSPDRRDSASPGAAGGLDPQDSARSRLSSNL", "test": "Inhibition of HCN2 (unknown origin) at 1 uM"}, "[20]": {"biological_target": "T3, Neuronal acetylcholine receptor; alpha9/alpha10 (Homo sapiens)", "test": "Antagonist activity at human alpha9alpha10 nAChR expressed in acetylcholine-induced Xenopus laevis oocytes assessed as inhibition of acetylcholine-induced current at 30 nM at -120 mV holding potential by two electrode voltage-clamp assay", "type": "cell-based", "settings": "Oocyte, filed as antagonist"}},
  "note": "Calls of active or inactive are those of the source. The calls are words filed in the database; no cut-off is given here.",
  "data": [
    {"compound": "CC[C@H](C)[C@H](NC(=O)[C@H](CCCNC(=N)N)NC(=O)[C@H](CCCNC(=N)N)NC(=O)[C@H](Cc1ccc(O)cc1)NC(=O)[C@H](CCCNC(=N)N)NC(=O)[C@H](CCCNC(=N)N)NC(=O)[C@H](CCCNC(=N)N)NC(=O)[C@H](CCCNC(=N)N)NC(=O)[C@H](CC(=O)O)NC(=O)[C@H](Cc1ccc(O)cc1)NC(=O)[C@@H]1CCCN1C(=O)[C@H](CO)NC(=O)[C@H](CCCNC(=N)N)NC(=O)[C@H](Cc1ccc(O)cc1)NC(=O)[C@H](CCCNC(=N)N)NC(=O)CN)C(=O)N[C@H](C(=O)N[C@@H](CC(=O)O)C(N)=O)[C@@H](C)O", "values": [
      {"measurement": "inhibition", "setting": "[1]", "value": "inactive"},
      {"measurement": "inhibition", "setting": "[2]", "value": 20, "unit": "%"},
      {"measurement": "inhibition", "setting": "[3]", "value": 40, "unit": "%"},
      {"measurement": "Activity", "setting": "[4]", "value": "Non-Toxic"},
      {"measurement": "IC50", "setting": "[5]", "value": 0.005, "unit": "µM"},
      {"measurement": "inhibition", "setting": "[6]", "value": "inactive"},
      {"measurement": "inhibition", "setting": "[7]", "value": 10, "unit": "%"},
      {"measurement": "inhibition", "setting": "[8]", "value": "Active"},
      {"measurement": "Activity", "setting": "Rattus norvegicus [9]", "value": "Active"},
      {"measurement": "inhibition", "setting": "[10]", "value": 50, "unit": "%"},
      {"measurement": "Activity", "setting": "Rattus norvegicus [11]", "value": "Active"},
      {"measurement": "inhibition", "setting": "[12]", "value": "inactive"},
      {"measurement": "IC50", "setting": "[13]", "value": 0.0046, "unit": "µM"},
      {"measurement": "inhibition", "setting": "[14]", "value": 53.6, "unit": "%"},
      {"measurement": "IC50", "setting": "[15]", "value": 0.0257, "unit": "µM"},
      {"measurement": "inhibition", "setting": "[16]", "value": 35, "unit": "%"},
      {"measurement": "inhibition", "setting": "[17]", "value": 25, "unit": "%"},
      {"measurement": "IC50", "setting": "[18]", "value": 0.0183, "unit": "µM"},
      {"measurement": "inhibition", "setting": "[19]", "value": "inactive"},
      {"measurement": "inhibition", "setting": "[20]", "value": "Active"}
    ]}
  ]
}
